# Laboratory results from patent US10947213B1 (Merck Patent GmbH, priority 2015, dated 2021).
# Counter-ions that a name gives are not always drawn.
# Target: T1, TLR7/NFKb HEK cells (Homo sapiens, UniProt Q9NYK1)
# T1 construct: expressed in transfected cells; host or cells: HEK cells (TLR7/NFKb reporter line)
# T1 sequence (Q9NYK1 27-1049): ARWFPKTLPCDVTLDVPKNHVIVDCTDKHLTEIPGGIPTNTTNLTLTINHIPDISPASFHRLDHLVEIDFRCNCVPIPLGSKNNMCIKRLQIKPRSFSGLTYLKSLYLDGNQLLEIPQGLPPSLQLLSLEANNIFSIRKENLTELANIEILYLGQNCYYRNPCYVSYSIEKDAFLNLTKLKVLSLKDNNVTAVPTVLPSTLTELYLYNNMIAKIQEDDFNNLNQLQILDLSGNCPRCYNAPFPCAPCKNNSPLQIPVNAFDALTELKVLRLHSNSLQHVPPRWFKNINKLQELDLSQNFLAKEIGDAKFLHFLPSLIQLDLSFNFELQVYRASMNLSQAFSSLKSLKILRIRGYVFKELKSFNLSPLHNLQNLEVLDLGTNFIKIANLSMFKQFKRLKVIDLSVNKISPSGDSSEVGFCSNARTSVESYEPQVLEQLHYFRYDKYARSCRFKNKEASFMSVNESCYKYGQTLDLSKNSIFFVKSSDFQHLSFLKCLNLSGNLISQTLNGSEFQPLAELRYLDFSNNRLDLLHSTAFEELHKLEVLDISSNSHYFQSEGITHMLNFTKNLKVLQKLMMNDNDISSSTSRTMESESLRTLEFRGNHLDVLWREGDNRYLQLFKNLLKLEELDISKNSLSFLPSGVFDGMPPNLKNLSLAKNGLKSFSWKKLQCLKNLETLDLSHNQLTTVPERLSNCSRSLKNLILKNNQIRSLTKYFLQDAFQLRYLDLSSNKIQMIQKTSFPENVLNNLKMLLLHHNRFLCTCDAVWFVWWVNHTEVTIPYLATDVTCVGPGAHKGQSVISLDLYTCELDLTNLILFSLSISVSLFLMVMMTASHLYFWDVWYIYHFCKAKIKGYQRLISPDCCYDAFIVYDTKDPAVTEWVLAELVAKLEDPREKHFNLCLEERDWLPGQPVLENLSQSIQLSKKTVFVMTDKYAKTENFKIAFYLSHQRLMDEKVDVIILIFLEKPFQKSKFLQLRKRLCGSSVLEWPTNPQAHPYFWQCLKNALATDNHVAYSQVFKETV
# Test: HEK Cell Assay (TLR7/NFKb reporter, Steady-Glo luciferase readout)
# Format: cell-based
# Conditions: 30 min compound preincubation, then R*48 agonist for 5 hours, read-out: Potency
# In short: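 Steady-Glo luminescence after 5 h stimulation with R*48 agonist, following 30 min compound preincubation. Assay run in HEK cells carrying a TLR7/NFKb luciferase reporter, plated at 5000 cells/well and grown 24 h at 37° C (10% CO2) before treatment.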
row,SMILES,IC50
1,"CC1CC(C(=O)N2CCN(C)CC2)CN(c2ccc(C(F)(F)F)c3ncccc23)C1 (stereo not drawn) [Compound 549, (4-Methyl-piperazin-1-yl)-[5-methyl-1-(8-trifluoromethyl-quinolin-5-yl)-piperidin-3-yl]-methanone]",1000 to 10000 nM
2,"COc1ccc(N2C[C@@H](C)C[C@@H](NC(=O)CC(C)(C)C)C2)c2cccnc12 [Compound 189, N-[(3R,5S)-1-(8-methoxyquinolin-5-yl)-5-methylpiperidin-3-yl]-3,3-dimethylbutanamide]",1000 to 10000 nM
3,"NC1CN(c2ccc(C(F)(F)F)c3ncccc23)CC(F)(F)C1 (stereo not drawn) [Compound 510, 5,5-Difluoro-1-(8-trifluoromethyl-quinolin-5-yl)-piperidin-3-ylamine]",< 1000 nM
4,"CC(C)C(C)C(=O)N[C@@H]1C[C@H](C)CN(c2ccnc3nccnc23)C1 (stereo partly drawn) [Compound 168, 2,3-dimethyl-N-[(3R,5S)-5-methyl-1-[pyrido[2,3-b]pyrazin-8-yl]piperidin-3-yl]butanamide]",> 10000 nM
5,"CCN(CC)C1CCN(CC2CCN(c3ccnc4nccnc34)CC2)CC1 [Compound 4, N,N-diethyl-1-((1-(pyrido[2,3-b]pyrazin-8-yl)piperidin-4-yl)methyl)piperidin-4-amine]",1000 to 10000 nM
6,"C[C@H]1C[C@@H](NC(=O)C2(N)COC2)CN(c2ccnc3nccnc23)C1 [Compound 128, 3-amino-N-[(3R,5S)-5-methyl-1-[pyrido[2,3-b]pyrazin-8-yl]piperidin-3-yl]oxetane-3-carboxamide]",> 10000 nM
7,C[C@H]1C[C@@H](NC(=O)CN2CC(O)C2)CN(c2ccc(C#N)c3nccnc23)C1 [Compound 270],< 1000 nM
8,"CC1CC(N)CN(c2ccc(F)c3nccnc23)C1 (single isomer, unassigned) [Compound 340]",1000 to 10000 nM
9,"C[C@H]1C[C@@H](NC(=O)CC2CCN(C)CC2)CN(c2ccc(C(F)(F)F)c3nccnc23)C1 [Compound 253, N-[(3R,5S)-5-methyl-1-[8-(trifluoromethyl)quinoxalin-5-yl]piperidin-3-yl]-2-(1-methylpiperidin-4-yl)acetamide]",< 1000 nM
10,"C[C@H]1C[C@@H](NC(=O)C2CC2(F)F)CN(c2ccc(C#N)c3nccnc23)C1 (stereo partly drawn) [Compound 165, N-[(3R,5S)-1-(8-cyanoquinoxalin-5-yl)-5-methylpiperidin-3-yl]-2,2-difluorocyclopropane-1-carboxamide]",< 1000 nM
11,"C[C@H]1C[C@@H](NC(=O)CN(C)C)CN(c2c(F)cc(C#N)c3nccnc23)C1 [Compound 347, N-[(3R,5S)-1-(8-cyano-6-fluoroquinoxalin-5-yl)-5-methylpiperidin-3-yl]-2-(dimethylamino)acetamide]",1000 to 10000 nM
12,"CC(C(=O)N[C@@H]1C[C@H](C)CN(c2ccc(C(F)(F)F)c3ncccc23)C1)N1CC(N)C1 (stereo partly drawn) [Compound 281, 2-(3-aminoazetidin-1-yl)-N-[(3R,5S)-5-methyl-1-[8-(trifluoromethyl)quinolin-5-yl]piperidin-3-yl]propanamide]",< 1000 nM
13,"C#CCC(=O)N[C@@H]1C[C@H](C)CN(c2ccc(C(F)(F)F)c3ncccc23)C1 [Compound 473, But-3-ynoic acid [(3R,5S)-5-methyl-1-(8-trifluoromethyl-quinolin-5-yl)-piperidin-3-yl]-amide]",< 1000 nM
14,"C[C@H]1C[C@@H](NC(=O)CN2CCOCC2)CN(c2ccc(C(F)(F)F)c3ncccc23)C1 [Compound 239, N-[(3R,5S)-5-methyl-1-[8-(trifluoromethyl)quinolin-5-yl]piperidin-3-yl]-2-(morpholin-4-yl)acetamide]",< 1000 nM
15,"C[C@H]1C[C@@H](NCC(N)=O)CN(c2ccc(C#N)c3nccnc23)C1 [Compound 122, 2-[[(3R,5S)-1-(8-cyanoquinoxalin-5-yl)-5-methylpiperidin-3-yl]amino]acetamide]",< 1000 nM
16,"C[C@H]1C[C@@H](NC(=O)CC2C3CC2CN(C)C3)CN(c2ccc(C#N)c3nccnc23)C1 (single isomer, unassigned) [Compound 357]",< 1000 nM
17,"Cc1ncc(N2C[C@@H](C)C[C@@H](NC(=O)CCC(N)=O)C2)c2cccnc12 [Compound 564, N-[(3R,5S)-5-Methyl-1-(8-methyl-[1,7]naphthyridin-5-yl)-piperidin-3-yl]-succinamide]",> 10000 nM

row,SMILES,IC50
1,"C[C@H]1C[C@@H](NC2CCOC2)CN(c2ccc(C#N)c3nccnc23)C1 (stereo partly drawn) [Compound 138, 8-[(3S,5R)-3-methyl-5-[(oxolan-3-yl)amino]piperidin-1-yl]quinoxaline-5-carbonitrile]",< 1000 nM
2,"CC1(C)C[C@@H](NC(=O)CC(F)(F)F)CN(c2ccc(C#N)c3nccnc23)C1 [Compound 220, N-[(3R)-1-(8-cyanoquinoxalin-5-yl)-5,5-dimethylpiperidin-3-yl]-3,3,3-trifluoropropanamide]",1000 to 10000 nM
3,"CCN(C)CCNC(=O)C1CCN(c2ccc(C#N)c3ncccc23)CC1 [Compound 416, 1-(8-Cyano-quinolin-5-yl)-piperidine-4-carboxylic Acid [2-(ethyl-methyl-amino)-ethyl]-amide]",< 1000 nM
4,"C[C@H]1C[C@@H](NC(=O)CN2CC(O)C2)CN(c2ccc(C(F)F)c3ncccc23)C1 [Compound 308, N-[(3R,5S)-1-[8-(difluoromethyl)quinolin-5-yl]-5-methylpiperidin-3-yl]-2-(3-hydroxyazetidin-1-yl)acetamide]",1000 to 10000 nM
5,"C[C@H]1C[C@@H](NC(=O)CN2CC(N)C2)CN(c2ccc(C#N)c3nccnc23)C1 [Compound 356, 2-(3-aminoazetidin-1-yl)-N-[(3R,5S)-1-(8-cyanoquinoxalin-5-yl)-5-methylpiperidin-3-yl]acetamide]",< 1000 nM
6,"C[C@H]1C[C@@H](NC(=O)CC(C)(C)N)CN(c2ccc(C(F)(F)F)c3ncccc23)C1 [Compound 514, 3-Amino-3-methyl-N-[(3R,5S)-5-methyl-1-(8-trifluoromethyl-quinolin-5-yl)-piperidin-3-yl]-butyramide]",< 1000 nM
7,"C[C@H]1C[C@@H](NC(=O)CNS(C)(=O)=O)CN(c2ccc(C#N)c3nccnc23)C1 [Compound 140, N-[(3R,5S)-1-(8-cyanoquinoxalin-5-yl)-5-methylpiperidin-3-yl]-2-methanesulfonamidoacetamide]",< 1000 nM
8,"CCC(C)CC(=O)N[C@@H]1C[C@H](C)CN(c2ccnc3nccnc23)C1 (single isomer, unassigned) [Compound 153]",1000 to 10000 nM
9,N[C@@H]1C[C@H](C(F)(F)F)CN(c2ccnc3nccnc23)C1 (racemic) [Compound 84],1000 to 10000 nM
10,"CN1CCN(CCNC(=O)C2CCN(c3ccc(C#N)c4ncccc34)CC2)CC1 [Compound 421, 1-(8-Cyano-quinolin-5-yl)-piperidine-4-carboxylic Acid [2-(4-methyl-piperazin-1-yl)-ethyl]-amide]",< 1000 nM
11,"N[C@H]1C[C@@H](C2CC2)CN(c2ccc(C(F)(F)F)c3ncccc23)C1 (relative stereo) [Compound 331, cis-5-cyclopropyl-1-[8-(trifluoromethyl)quinolin-5-yl]piperidin-3-amine]",< 1000 nM
12,"N#Cc1ccc(N2CC(N)CC(C3CC3)C2)c2nccnc12 (single isomer, unassigned) [Compound 70, 8-(3-amino-5-cyclopropylpiperidin-1-yl)quinoxaline-5-carbonitrile]",< 1000 nM
13,"CC1(C)C[C@@H](NC(=O)CO)CN(c2ccc(C#N)c3nccnc23)C1 [Compound 218, N-[(3R)-1-(8-cyanoquinoxalin-5-yl)-5,5-dimethylpiperidin-3-yl]-2-hydroxyacetamide]",1000 to 10000 nM
14,"CC(C(=O)N[C@@H]1C[C@H](C)CN(c2ccc(C#N)c3nccnc23)C1)N1CC(F)(F)C1 (stereo partly drawn) [Compound 273, N-[(3R,5S)-1-(8-cyanoquinoxalin-5-yl)-5-methylpiperidin-3-yl]-2-(3,3-difluoroazetidin-1-yl)propanamide]",1000 to 10000 nM
15,"C[C@H]1C[C@@H](N)CN(c2ccc(C#N)c3nsnc23)C1 [Compound 552, 7-((3R,5S)-3-Amino-5-methyl-piperidin-1-yl)-benzo[1,2,5]thiadiazole-4-carbonitrile hydrochloride]",< 1000 nM
16,"C[C@H]1C[C@@H](NC(=O)CN2CC(N)C2)CN(c2ccc(C(F)F)c3nccnc23)C1 [Compound 365, 2-(3-aminoazetidin-1-yl)-N-[(3R,5S)-1-[8-(difluoromethyl)quinoxalin-5-yl]-5-methylpiperidin-3-yl]acetamide]",1000 to 10000 nM
